Reference: patent US20080207705A1, “Heteroaryl-Imidazole Derivatives as Cannabinoid CB1 Receptor Antagonists” (Green Cross Corporation, priority 2007, published 2008)

target: T1, rat CB-1 receptor (Rattus norvegicus, UniProt P20272); experiment: rat CB-1 receptor binding protocol with [3H]CP-55940; conditions: not given
T1 construct: The tissue obtained from the brain of SD rats was homogenized; from tissue; host or cells: brain of SD rats (membrane pellet of homogenate)
T1 sequence (P20272 whole entry): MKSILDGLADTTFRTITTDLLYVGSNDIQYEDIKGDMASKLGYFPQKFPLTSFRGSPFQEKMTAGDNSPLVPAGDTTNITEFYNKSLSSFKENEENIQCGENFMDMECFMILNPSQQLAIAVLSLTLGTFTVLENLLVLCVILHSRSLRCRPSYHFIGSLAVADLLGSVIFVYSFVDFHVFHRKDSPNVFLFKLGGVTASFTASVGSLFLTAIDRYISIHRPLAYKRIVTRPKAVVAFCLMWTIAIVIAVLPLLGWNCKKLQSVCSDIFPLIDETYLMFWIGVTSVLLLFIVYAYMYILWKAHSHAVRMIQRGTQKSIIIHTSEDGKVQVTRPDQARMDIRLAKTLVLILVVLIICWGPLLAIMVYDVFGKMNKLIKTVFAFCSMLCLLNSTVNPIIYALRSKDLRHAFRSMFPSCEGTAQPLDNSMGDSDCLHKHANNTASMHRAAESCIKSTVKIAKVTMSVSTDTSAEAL

`CC(C)(C)c1nnc(-c2nc(-c3ccccc3Cl)n(-c3ccc(Br)cc3)c2Cn2cncn2)s1` [Example 168, 2-(5-((1H-1,2,4-Triazol-1-yl)methyl)-1-(4-bromophenyl)-2-(2-chlorophenyl)-1H-imidazol-4-yl)-5-tert-butyl-1,3,4-thiadiazole] gave an IC50 of 4.01 nM.

same assay, conditions: [3H]CP-55940, brain tissue of SD rats, 30 °C for 60 min; read-out: IC50

In order of rising IC50:
1. FC(F)(F)C1(c2nnc(-c3nc(-c4ccc(Cl)cc4Cl)n(-c4ccc(Br)cc4)c3Cn3cncn3)s2)CCC1 [Example 166, 2-(5-((1H-1,2,4-Triazol-1-yl)methyl)-1-(4-bromophenyl)-2-(2,4-dichlorophenyl)-1H-imidazol-4-yl)-5-(1-(trifluoromethyl)cyclobutyl)-1,3,4-thiadiazole]  1.7 nM
2. FC(F)(F)C1(c2nnc(-c3nc(-c4ccccc4Cl)n(-c4ccc(Br)cc4)c3Cn3cncn3)s2)CCC1 [Example 170, 2-(5-((1H-1,2,4-Triazol-1-yl)methyl)-1-(4-bromophenyl)-2-(2-chlorophenyl)-1H-imidazol-4-yl)-5-(1-(trifluoromethyl)cyclobutyl)-1,3,4-thiadiazole]  1.75 nM
3. Clc1ccc(C2(c3nnc(-c4nc(-c5ccccc5Cl)n(-c5ccc(Br)cc5)c4Cn4cncn4)s3)CC2)cc1 [Example 171, 2-(5-((1H-1,2,4-Triazol-1-yl)methyl)-1-(4-bromophenyl)-2-(2-chlorophenyl)-1H-imidazol-4-yl)-5-(1-(4-chlorophenyl)cyclopropyl)-1,3,4-thiadiazole]  1.8 nM
4. Clc1ccc(C2(c3nnc(-c4nc(-c5ccc(Cl)cc5Cl)n(-c5ccc(Br)cc5)c4Cn4cncn4)s3)CC2)cc1 [Example 167, 2-(5-((1H-1,2,4-Triazol-1-yl)methyl)-1-(4-bromophenyl)-2-(2,4-dichlorophenyl)-1H-imidazol-4-yl)-5-(1-(4-chlorophenyl)cyclopropyl)-1,3,4-thiadiazole]  3.91 nM
5. FC(F)(F)C1(c2nnc(-c3nc(-c4ccccc4Cl)n(-c4ccc(Br)cc4)c3Cn3cncn3)s2)CC1 [Example 169, 2-(5-((1H-1,2,4-Triazol-1-yl)methyl)-1-(4-bromophenyl)-2-(2-chlorophenyl)-1H-imidazol-4-yl)-5-(1-(trifluoromethyl)cyclopropyl)-1,3,4-thiadiazole]  4.73 nM
6. CCc1c(-c2nnc(C3(c4ccc(Cl)cc4)CC3)s2)nc(-c2ccccc2Cl)n1-c1ccc(Br)cc1 [Example 148, 2-(1-(4-Bromophenyl)-2-(2-chlorophenyl)-5-ethyl-1H-imidazol-4-yl)-5-(1-(4-chlorophenyl)cyclopropyl)-1,3,4-thiadiazole]  4.93 nM
7. FC(F)(F)C1(c2nnc(-c3nc(-c4ccc(Cl)cc4Cl)n(-c4ccc(Br)cc4)c3Cn3cncn3)s2)CC1 [Example 165, 2-(5-((1H-1,2,4-Triazol-1-yl)methyl)-1-(4-bromophenyl)-2-(2,4-dichlorophenyl)-1H-imidazol-4-yl)-5-(1-(trifluoromethyl)cyclopropyl)-1,3,4-thiadiazole]  5.59 nM
8. CCc1c(-c2ncc(C(C)(C)C)o2)nc(-c2ccc(Cl)cc2Cl)n1-c1ccc(Br)cc1 [Example 188, 2-(1-(4-Bromophenyl)-2-(2,4-dichlorophenyl)-5-ethyl-1H-imidazol-4-yl)-5-tert-butyloxazole]  8.98 nM
9. CCc1c(-c2ncc(C(C)(C)C)s2)nc(-c2ccc(Cl)cc2Cl)n1-c1ccc(Br)cc1 [Example 201, 2-(1-(4-Bromophenyl)-2-(2,4-dichlorophenyl)-5-ethyl-1H-imidazol-4-yl)-5-tert-butylthiazole]  10.5 nM
10. CCCCc1cnc(-c2nc(-c3ccc(Cl)cc3Cl)n(-c3ccc(Cl)cc3)c2C)o1 [Example 182, 5-Butyl-2-(1-(4-chlorophenyl)-2-(2,4-dichlorophenyl)-5-methyl-1H-imidazol-4-yl)oxazole]  11.6 nM
11. Cc1c(-c2ncc(CC(C)C)o2)nc(-c2ccc(Cl)cc2Cl)n1-c1ccc(Cl)cc1 [Example 184, 2-(1-(4-Chlorophenyl)-2-(2,4-dichlorophenyl)-5-methyl-1H-imidazol-4-yl)-5-isobutyloxazole]  13.1 nM
12. Cc1c(-c2ncc(C(C)C)s2)nc(-c2ccc(Cl)cc2Cl)n1-c1ccc(Cl)cc1 [Example 196, 2-(1-(4-Chlorophenyl)-2-(2,4-dichlorophenyl)-5-methyl-1H-imidazol-4-yl)-5-isopropylthiazole]  16 nM
13. Cc1c(-c2ncc(C(C)(C)C)s2)nc(-c2ccc(Cl)cc2Cl)n1-c1ccc(Br)cc1 [Example 200, 2-(1-(4-Bromophenyl)-2-(2,4-dichlorophenyl)-5-methyl-1H-imidazol-4-yl)-5-tert-butylthiazole]  16 nM
14. Cc1c(-c2ncc(C(C)(C)C)o2)nc(-c2ccc(Cl)cc2Cl)n1-c1ccc(Br)cc1 [Example 187, 2-(1-(4-Bromophenyl)-2-(2,4-dichlorophenyl)-5-methyl-1H-imidazol-4-yl)-5-tert-butyloxazole]  16.9 nM
15. CC(C)(C)c1nnc(-c2nc(-c3ccc(Cl)cc3Cl)n(-c3ccc(Br)cc3)c2Cn2cncn2)s1 [Example 164, 2-(5-((1H-1,2,4-Triazol-1-yl)methyl)-1-(4-bromophenyl)-2-(2,4-dichlorophenyl)-1H-imidazol-4-yl)-5-tert-butyl-1,3,4-thiadiazole]  20.9 nM
16. Cc1c(-c2ncc(C(C)C)o2)nc(-c2ccc(Cl)cc2Cl)n1-c1ccc(Cl)cc1 [Example 183, 2-(1-(4-Chlorophenyl)-2-(2,4-dichlorophenyl)-5-methyl-1H-imidazol-4-yl)-5-isopropyloxazole]  26.4 nM
17. CCc1c(-c2nc(C(C)(C)C)co2)nc(-c2ccc(Cl)cc2Cl)n1-c1ccc(Br)cc1 [Example 191, 2-(1-(4-Bromophenyl)-2-(2,4-dichlorophenyl)-5-ethyl-1H-imidazol-4-yl)-4-tert-butyloxazole]  30 nM
18. Cc1c(-c2ncc(CC(C)C)s2)nc(-c2ccc(Cl)cc2Cl)n1-c1ccc(Cl)cc1 [Example 197, 2-(1-(4-Chlorophenyl)-2-(2,4-dichlorophenyl)-5-methyl-1H-imidazol-4-yl)-5-isobutylthiazole]  46.4 nM
19. CCCCc1cnc(-c2nc(-c3ccc(Cl)cc3Cl)n(-c3ccc(Cl)cc3)c2C)s1 [Example 195, 5-Butyl-2-(1-(4-chlorophenyl)-2-(2,4-dichlorophenyl)-5-methyl-1H-imidazol-4-yl)thiazole]  63.3 nM
20. CCc1cnc(-c2nc(-c3ccc(Cl)cc3Cl)n(-c3ccc(Cl)cc3)c2C)s1 [Example 194, 2-(1-(4-Chlorophenyl)-2-(2,4-dichlorophenyl)-5-methyl-1H-imidazol-4-yl)-5-ethylthiazole]  70.2 nM
21. Cc1c(-c2ncc(C3CCCCC3)s2)nc(-c2ccc(Cl)cc2Cl)n1-c1ccc(Cl)cc1 [Example 193, 2-(1-(4-Chlorophenyl)-2-(2,4-dichlorophenyl)-5-methyl-1H-imidazol-4-yl)-5-cyclohexylthiazole]  74.5 nM
22. CCc1oc(-c2nc(-c3ccc(Cl)cc3Cl)n(-c3ccc(Cl)cc3)c2C)nc1C [Example 192, 2-(1-(4-Chlorophenyl)-2-(2,4-dichlorophenyl)-5-methyl-1H-imidazol-4-yl)-5-ethyl-4-methyloxazole]  77.9 nM
23. Cc1c(-c2ncc(C3CCCCC3)o2)nc(-c2ccc(Cl)cc2Cl)n1-c1ccc(Cl)cc1 [Example 180, 2-(1-(4-Chlorophenyl)-2-(2,4-dichlorophenyl)-5-methyl-1H-imidazol-4-yl)-5-cyclohexyloxazole]  78.6 nM
24. CCc1cnc(-c2nc(-c3ccc(Cl)cc3Cl)n(-c3ccc(Cl)cc3)c2C)o1 [Example 181, 2-(1-(4-Chlorophenyl)-2-(2,4-dichlorophenyl)-5-methyl-1H-imidazol-4-yl)-5-ethyloxazole]  84 nM
25. Cc1c(-c2nc(C(C)(C)C)co2)nc(-c2ccc(Cl)cc2Cl)n1-c1ccc(Cl)cc1 [Example 189, 4-tert-Butyl-2-(1-(4-chlorophenyl)-2-(2,4-dichlorophenyl)-5-methyl-1H-imidazol-4-yl)oxazole]  88.3 nM
26. CCc1sc(-c2nc(-c3ccc(Cl)cc3Cl)n(-c3ccc(Cl)cc3)c2C)nc1C [Example 202, 2-(1-(4-Chlorophenyl)-2-(2,4-dichlorophenyl)-5-methyl-1H-imidazol-4-yl)-5-ethyl-4-methylthiazole]  90.2 nM
27. CCc1c(-c2nc(C(C)(C)C)co2)nc(-c2ccc(Cl)cc2Cl)n1-c1ccc(Cl)cc1 [Example 190, 4-tert-Butyl-2-(1-(4-chlorophenyl)-2-(2,4-dichlorophenyl)-5-ethyl-1H-imidazol-4-yl)oxazole]  119 nM
